Assay results as given in ChEMBL document CHEMBL6134857, “Novel Spiro-Barbiturates Can Reverse the Action of General Anesthetics on the GABAAR” (J Med Chem, 2025).

Experiments:
Format in all cases: cell membranes
[1] = target: T1, GABA-A receptor; alpha-1/beta-3/gamma-2 (Homo sapiens) (UniProt P14867+P18507+P28472); assay: Effect on [3H]muscimol binding to full length human N-terminal flag-tagged alpha1-beta3-C-terminal 1D4-tagged gamma2 GABAA receptor extracted from Tetracycline-resistant HEK293 cell membrane assessed as fold change in [3H]muscimol binding at 300 uM incubated for 30 mins; details: filed as modulator
[2] = target: T1, GABA-A receptor; alpha-1/beta-3/gamma-2 (Homo sapiens); assay: Inhibition of R-mTFD-MPAB-induced [3H]muscimol binding to full length human N-terminal flag-tagged alpha1-beta3-C-terminal 1D4-tagged gamma2 GABAA receptor extracted from Tetracycline-resistant HEK293 cell membrane assessed as fold change at 300 uM incubated for 30 mins; details: filed as modulator
[3] = target: T1, GABA-A receptor; alpha-1/beta-3/gamma-2 (Homo sapiens); assay: (§1) Modulation of [3H]flunitrazepam binding to full length human N-terminal flag-tagged alpha1-beta3-C-terminal 1D4-tagged gamma2 GABAA receptor extracted from Tetracycline-resistant HEK293 cell membrane assessed as fold change in [3H]flunitrazepam binding at 300 uM incubated for 30 mins; details: filed as modulator
[4] = target: T1, GABA-A receptor; alpha-1/beta-3/gamma-2 (Homo sapiens); assay: as §1, with “Inhibition” for “Modulation”, “reduction” for “fold change”, “mins relative to control” for “mins”
[5] = target: T2, GABA-A receptor; alpha-1/beta-3/gamma-2 (Homo sapiens, UniProt P14867+P18507+P28472); assay: Positive allosteric modulation on [3H]muscimol binding to full length human N-terminal flag-tagged alpha1-beta3-C-terminal 1D4-tagged gamma2 GABAA receptor extracted from Tetracycline-resistant HEK293 cell membrane assessed as [3H]muscimol binding incubated for 30 mins
T2 sequence (P14867 whole entry): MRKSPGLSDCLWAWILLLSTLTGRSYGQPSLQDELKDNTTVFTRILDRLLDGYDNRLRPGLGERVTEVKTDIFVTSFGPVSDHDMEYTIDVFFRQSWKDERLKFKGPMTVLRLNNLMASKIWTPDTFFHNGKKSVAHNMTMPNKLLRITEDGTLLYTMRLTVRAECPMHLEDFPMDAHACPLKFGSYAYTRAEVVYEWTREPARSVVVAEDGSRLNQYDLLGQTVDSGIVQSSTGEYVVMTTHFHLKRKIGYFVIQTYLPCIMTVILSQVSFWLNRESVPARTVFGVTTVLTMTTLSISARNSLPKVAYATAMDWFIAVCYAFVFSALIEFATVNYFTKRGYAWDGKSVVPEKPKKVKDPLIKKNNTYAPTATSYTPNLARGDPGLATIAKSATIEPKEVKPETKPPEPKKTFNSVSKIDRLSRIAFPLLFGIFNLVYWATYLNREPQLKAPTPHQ
T2 sequence (P18507 whole entry): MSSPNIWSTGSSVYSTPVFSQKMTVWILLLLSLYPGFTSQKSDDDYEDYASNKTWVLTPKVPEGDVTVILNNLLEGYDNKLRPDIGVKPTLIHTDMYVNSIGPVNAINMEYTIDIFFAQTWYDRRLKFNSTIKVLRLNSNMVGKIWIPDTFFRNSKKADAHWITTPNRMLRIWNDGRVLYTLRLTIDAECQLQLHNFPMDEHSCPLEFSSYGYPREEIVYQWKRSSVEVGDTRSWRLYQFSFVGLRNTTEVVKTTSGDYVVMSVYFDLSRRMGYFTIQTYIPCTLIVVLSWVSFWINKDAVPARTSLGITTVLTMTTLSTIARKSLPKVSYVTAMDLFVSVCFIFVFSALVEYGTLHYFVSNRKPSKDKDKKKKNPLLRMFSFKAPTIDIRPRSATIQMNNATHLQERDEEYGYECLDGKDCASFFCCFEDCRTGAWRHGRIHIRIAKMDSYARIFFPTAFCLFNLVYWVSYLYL
T2 sequence (P28472 whole entry): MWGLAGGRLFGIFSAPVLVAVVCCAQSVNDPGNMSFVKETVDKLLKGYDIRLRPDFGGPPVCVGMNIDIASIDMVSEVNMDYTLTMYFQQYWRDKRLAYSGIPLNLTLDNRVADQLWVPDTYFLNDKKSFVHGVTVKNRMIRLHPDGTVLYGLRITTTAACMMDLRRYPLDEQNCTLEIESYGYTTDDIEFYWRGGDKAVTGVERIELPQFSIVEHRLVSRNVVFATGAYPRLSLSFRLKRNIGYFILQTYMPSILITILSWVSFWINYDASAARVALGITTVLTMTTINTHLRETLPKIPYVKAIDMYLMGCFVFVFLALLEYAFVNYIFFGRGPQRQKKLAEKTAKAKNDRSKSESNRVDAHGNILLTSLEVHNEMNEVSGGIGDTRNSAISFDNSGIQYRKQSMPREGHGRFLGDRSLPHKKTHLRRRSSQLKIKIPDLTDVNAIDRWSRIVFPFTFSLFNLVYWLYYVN

[6] = target: T2, GABA-A receptor; alpha-1/beta-3/gamma-2; assay: Inhibition of R-mTFD-MPAB-induced [3H]muscimol binding to full length human N-terminal flag-tagged alpha1-beta3-C-terminal 1D4-tagged gamma2 GABAA receptor extracted from Tetracycline-resistant HEK293 cell membrane incubated for 30 mins
[7] = target: T1, GABA-A receptor; alpha-1/beta-3/gamma-2 (Homo sapiens); assay: Effect on [3H]muscimol binding to full length human N-terminal flag-tagged alpha1-beta3-C-terminal 1D4-tagged gamma2 GABAA receptor extracted from Tetracycline-resistant HEK293 cell membrane assessed as [3H]muscimol binding at 300 uM incubated for 30 mins relative to control
[8] = target: T1, GABA-A receptor; alpha-1/beta-3/gamma-2 (Homo sapiens); assay: Inhibition of R-mTFD-MPAB-induced [3H]muscimol binding to full length human N-terminal flag-tagged alpha1-beta3-C-terminal 1D4-tagged gamma2 GABAA receptor extracted from Tetracycline-resistant HEK293 cell membrane at 300 uM incubated for 30 mins relative to control
[9] = target: T1, GABA-A receptor; alpha-1/beta-3/gamma-2 (Homo sapiens); assay: Positive allosteric modulation on R-mTFD-MPAB-induced [3H]muscimol binding to full length human N-terminal flag-tagged alpha1-beta3-C-terminal 1D4-tagged gamma2 GABAA receptor extracted from Tetracycline-resistant HEK293 cell membrane at 300 uM incubated for 30 mins relative to control
[10] = target: T2, GABA-A receptor; alpha-1/beta-3/gamma-2; assay: Mixed-type inhibition of R-mTFD-MPAB-induced [3H]muscimol binding to full length human N-terminal flag-tagged alpha1-beta3-C-terminal 1D4-tagged gamma2 GABAA receptor extracted from Tetracycline-resistant HEK293 cell membrane incubated for 30 mins
[11] = target: T2, GABA-A receptor; alpha-1/beta-3/gamma-2; assay: Mixed effect on [3H]muscimol binding to full length human N-terminal flag-tagged alpha1-beta3-C-terminal 1D4-tagged gamma2 GABAA receptor extracted from Tetracycline-resistant HEK293 cell membrane assessed as [3H]muscimol binding incubated for 30 mins

SMILES | fold change (FC) [1] | fold change (FC) [2] | fold change (FC) [3] | inhibition [4] [%] | Activity [7] [%] | inhibition [8] [%] | also measured
COc1ccc2c(c1)C1(CC2)C(=O)NC(=O)N(C)C1=O (stereo in doubt; 7h-1) | 0.36 | 1.06 | 0.55 | 45 | – | – | –
CC(C)c1ccc2c(c1)C1(CC2)C(=O)NC(=O)N(C)C1=O (stereo in doubt; 5h-2) [listing 1 of 2 here] | 0.14 | 0.97 | 0.59 | 12 | – | – | –
CN1C(=O)NC(=O)C2(CCc3ccc(Br)cc32)C1=O (stereo in doubt; 6h-2) | 0.35 | 1.09 | 0.61 | 12 | – | – | –
Cc1ccc2c(c1)C1(CC2)C(=O)NC(=O)N(C)C1=O (stereo in doubt; 4h-2) [listing 1 of 2 here] | 0.37 | 0.54 | 0.72 | 12 | – | – | –
CC(C)c1ccc2c(c1)C1(CC2)C(=O)NC(=O)N(C)C1=O (stereo in doubt; 5h-2) [listing 2 of 2 here] | – | – | – | – | – | – | EC50 [5]: 38 µM
CN1C(=O)NC(=O)C2(CCc3ccc(Br)cc32)C1=O (stereo in doubt; 6h-1) | 0.4 | 0.99 | 0.65 | 12 | – | – | –
COc1ccc2c(c1)C1(CC2)C(=O)NC(=O)N(C)C1=O (stereo in doubt; 7h-2) | 0.37 | 0.73 | 0.88 | 12 | – | – | –
CN=C1NC(=O)C2(CCc3ccccc32)C(=O)N1 (centres undefined) | -0.09 | 0.35 | – | – | – | – | IC50 [6]: 99 µM
Cc1ccc2c(c1)C1(CC2)C(=O)NC(=O)N(C)C1=O (stereo in doubt; 4h-1) | 0.15 | 0.88 | 0.76 | 12 | – | – | –
CN1C(=O)NC(=O)[C@]2(CCc3ccccc32)C1=O | 0.16 | 0.67 | 0.67 | 12 | – | – | –
O=C1NC(=S)NC(=O)C12CCc1ccc(Br)cc12 | 0.43 | 0.74 | – | – | < 10 | > 40 | –
O=C1NC(=O)C2(CC(O)c3ccccc32)C(=O)N1 (stereo in doubt; 1t-2) | – | – | – | – | – | – | IC50 [6]: 113 µM
Cc1ccc2c(c1)C1(CC2)C(=O)NC(=N)NC1=O (centres undefined) | -0.09 | 0.36 | – | – | < 10 | > 40 | –
O=C1NC(=O)C2(CCc3ccc(F)cc32)C(=O)N1 | 0.07 | 0.73 | – | – | < 10 | > 40 | –
O=C1NC(=O)C2(CCCCc3ccccc32)C(=O)N1 | 0.22 | 0.98 | 0.43 | 12 | – | – | –
O=C1NC(=O)C2(CCc3ccccc32)C(=O)N1 | -0.02 | 0.53 | – | 12 | – | – | IC50 [6]: 18 µM
CC(C)c1ccc2c(c1)C1(CC2)C(=O)NC(=S)NC1=O | 0.54 | 0.87 | – | – | < 10 | > 40 | –
CC(C)c1ccc2c(c1)C1(CC2)C(=O)NC(=O)N(C)C1=O (stereo in doubt; 5h-1) [listing 1 of 2 here] | 0.8 | 0.73 | 0.84 | 12 | – | – | Activity ([9]; filed as positive allosteric modulator): 80%
CC(C)c1ccc2c(c1)C1(CC2)C(=O)NC(=O)N(C)C1=O (stereo in doubt; 5h-1) [listing 2 of 2 here] | – | – | – | – | – | – | EC50 [5]: 32 µM
COc1ccc2c(c1)C1(CC2)C(=O)NC(=S)NC1=O | 0.2 | 1.04 | – | – | < 10 | > 40 | –
O=C1NC(=O)C2(CCCc3ccccc32)C(=O)N1 | 0.08 | 0.97 | 0.45 | 12 | – | – | –
Cc1ccc2c(c1)C1(CC2)C(=O)NC(=O)N(C)C1=O (stereo in doubt; 4h-2) [listing 2 of 2 here] | – | – | – | – | – | – | IC50 [10]: 38 µM; EC50 [11]: 32 µM
CC(C)c1ccc2c(c1)C1(CC2)C(=O)NC(=O)NC1=O | 0.26 | 0.9 | – | – | < 10 | > 40 | EC50 [5]: 22 µM; Activity [9]: 20%
N=C1NC(=O)C2(CCc3ccc(Cl)cc32)C(=O)N1 (centres undefined) | 0.02 | 0.53 | – | – | < 10 | > 40 | –
O=C1NC(=O)C2(CCc3ccc(Cl)cc32)C(=O)N1 | 0.15 | 0.88 | – | – | < 10 | > 40 | –
CN1C(=O)NC(=O)[C@@]2(CCc3ccccc32)C1=O | 0.08 | 0.78 | 0.56 | 12 | – | – | –
Cc1ccc2c(c1)C1(CC2)C(=O)NC(=O)NC1=O | 0.06 | 0.87 | – | – | < 10 | > 40 | –
